Source: patent US10919935B2, “Antimicrobial peptide derived from myxinidin peptide and uses thereof” (INDUSTRY-ACADEMIC COOPERATION FOUNDATION, CHOSUN UNIVERSITY, priority 2015, dated 2021)
Residues, ends and D or L forms follow the SMILES beside them.

Assays:
in vitro = format: cell-based; conditions: human, NHK cells (normal human keratinocytes)
Description: To determine the cytotoxicity of the peptide produced by the method of Example 1 in normal cell line, toxicity was measured by using NHK cells (Normal Human Keratinocyte cells).
Specifically, NHK cells which have been cultured in Epilife medium with 60 μM calcium (Gibco, USA) containing 10% HKGS (Human Keratinocyte Growth Supplement) (Gibco, USA) were aliquoted in a 96-well plate to have 1×10^4 cells per well. After culturing them for 24 hours, the cells were subjected to a treatment with myxinidin, myxinidin 1, myxinidin 2, or myxinidin 3 peptide, each at concentration of 3.125, 6.25, 12.5, or 25.0 μM/well, followed by reaction for 24 hours in a 5% CO2 incubator. After the culture, a reaction solution containing 5 mg/ml MTT (Thiazolyl Blue Tetrazolium Bromide) dissolved in physiological saline (PBS) was added in an amount of 20 μl to each well and allowed to react for 4 hours. After that, the supernatant was removed, and, by dissolving MTT crystals that are formed by adding 200 μl of DMSO, the absorbance at 560 nm was measured to determine the cell survival ability.

P. aeruginosa = assay: Anti-biofilm activity (crystal violet); format: cell-based, Pseudomonas aeruginosa
Description: (§1) To compare the antimicrobial activity of the peptide produced by the method of Example 1, the inventors of the present invention measured the biofilm inhibitory concentration value of the peptide showing no dissociation of bacterial cells.
(§2) Specifically, the Gram-negative bacteria and Gram-positive bacteria among the bacterial strains described in the above Table 2 were cultured in each medium to a mid-log phase. Then, after dilution to bacterial cell concentration of 5×10^5 cells/100 μl, the cells were inoculated to a microtiter plate (NUNC, USA). Thereafter, myxinidin 1, myxinidin 2, or myxinidin 3 peptides which have been synthesized in Example 1 above was diluted, 1/10 times for each, with physiological saline (PBS) solution in a 96-well plate. After adding the cells to a plate, the cells were cultured for 12 hours at 37° C. After removing the supernatant, the cells were fixed with 100% methanol and reacted for 2 hours with Crystal violet staining solution followed by rinsing for 3 times. Then, after dissolving in 95% ethanol, the absorbance was measured at a wavelength of 595 nm by using a microtiter plate reader (Merck Elisa reader, Germany) to determine the biofilm inhibitory concentration value of each bacterial strain. As a control group, myxinidin as a mother peptide was subjected to the same processes as above and the biofilm inhibitory concentration value of each bacterial strain was obtained.

L. monocytogenes [1] = assay: Anti-biofilm activity (crystal violet); format: cell-based, Listeria monocytogenes
Description: as §1, §2

L. monocytogenes [2] = assay: MIC at salt concentration (Example 3); format: cell-based, Listeria monocytogenes
Description: To compare the antimicrobial activity of the peptide produced by the method of Example 1, the inventors of the present invention measured the minimum growth inhibitory concentration (MIC), which is minimum concentration of the peptide showing no dissociation of bacterial cells, at salt concentration.
Specifically, the bacterial strain described in the above Table 2 was cultured in each medium to a mid-log phase. Then, after dilution to bacterial cell concentration of 2×10^5 cells/100 μl, the cells were inoculated to a microtiter plate (NUNC, USA). Thereafter, myxinidin 1, myxinidin 2, or myxinidin 3 peptides which have been synthesized in Example 1 above was diluted, 1/2 times for each, with BSA+150 mM sodium chloride (NaCl) solution, physiological saline (PBS) solution, or 10 mM sodium phosphate (SP) solution in a 96-well plate. After adding the cells to a plate, the cells were cultured for 12 hours at 37° C. By using a microtiter plate reader (Merck Elisa reader, Germany), the absorbance was measured at a wavelength of 600 nm to determine the MIC value of each bacterial strain. As a control group, myxinidin as a mother peptide was subjected to the same processes as above and the MIC value of each bacterial strain was obtained.

[3] = test system: Staphylococcus aureus CCARM 3114; format: cell-based
Description: (§3) To compare the antimicrobial activity of the peptide produced by the method of Example 1, the inventors of the present invention measured the growth minimum inhibitory concentration (MIC), which is minimum concentration of the peptide showing no dissociation of bacterial cells.
(§4) Specifically, the bacterial strain described in the following Table 2 was purchased and cultured in each medium to a mid-log phase. Then, after dilution to bacterial cell concentration of 2×10^5 cells/100 μl, the cells were inoculated to a microtiter plate (NUNC, USA). Thereafter, myxinidin 1, myxinidin 2, or myxinidin 3 peptides which have been synthesized in Example 1 above was diluted, 1/2 times for each, with BSA (bovine serum albumin) solution in a 96-well plate. After adding the cells to a plate, the cells were cultured for 12 hours at 37° C. By using a microtiter plate reader (Merck Elisa reader, Germany), the absorbance was measured at a wavelength of 600 nm to determine the MIC value of each bacterial strain. As a control group, myxinidin as a mother peptide was subjected to the same processes as above and the MIC value of each bacterial strain was obtained.

[4] = test system: Pseudomonas aeruginosa Isolated strain 3592; format: cell-based
Description: as §3, §4

[5] = test system: Staphylococcus aureus CCARM 3709; format: cell-based
Description: as §3, §4

[6] = test system: Salmonella typhimurium CCARM 8009; format: cell-based
Description: as §3, §4

[7] = test system: Escherichia coli ATCC 25922; format: cell-based
Description: as §3, §4

[8] = test system: Salmonella typhimurium CCARM 8013; format: cell-based
Description: as §3, §4

[9] = test system: Salmonella typhimurium KCTC 1926; format: cell-based
Description: as §3, §4

[10] = test system: Staphylococcus aureus ATCC 25923; format: cell-based
Description: as §3, §4

S. aureus = assay: Anti-biofilm activity (crystal violet); format: cell-based, Staphylococcus aureus
Description: as §1, §2

[11] = NaCl (BSA+150 mM sodium chloride)

Row | SMILES | viability at 24 h, 3.125 µM (in vitro) | viability at 24 h, 6.25 µM (in vitro) | viability at 24 h, 12.5 µM (in vitro) | viability at 24 h, 25 µM (in vitro) | Biofilm forming ability (P. aeruginosa; peptide 0.25 μM) | Biofilm forming ability (P. aeruginosa; peptide 0.5 μM) | Biofilm forming ability (P. aeruginosa; peptide 1 μM) | Biofilm forming ability (P. aeruginosa; peptide 2 μM) | Biofilm forming ability (P. aeruginosa; peptide 4 μM) | Biofilm forming ability (P. aeruginosa; peptide 8 μM) | Biofilm forming ability (P. aeruginosa; peptide 16 μM) | Biofilm forming ability (P. aeruginosa; peptide 32 μM) | Biofilm forming ability (L. monocytogenes [1]; peptide 0.25 μM) | Biofilm forming ability (L. monocytogenes [1]; peptide 0.5 μM) | Biofilm forming ability (L. monocytogenes [1]; peptide 1 μM) | Biofilm forming ability (L. monocytogenes [1]; peptide 2 μM) | Biofilm forming ability (L. monocytogenes [1]; peptide 4 μM) | Biofilm forming ability (L. monocytogenes [1]; peptide 8 μM) | Biofilm forming ability (L. monocytogenes [1]; peptide 16 μM) | Biofilm forming ability (L. monocytogenes [1]; peptide 32 μM) | further results
1 | CC[C@H](C)[C@H](NC(=O)[C@H](Cc1c[nH]c2ccccc12)NC(=O)[C@H](CCCCN)NC(=O)[C@@H](NC(=O)[C@@H](N)CCCCN)[C@@H](C)CC)C(=O)N[C@@H](CC(C)C)C(=O)N[C@@H](CCCCN)C(=O)N[C@@H](Cc1ccc(O)cc1)C(=O)N[C@@H](Cc1c[nH]c2ccccc12)C(=O)N[C@@H](CCCCN)C(=O)N[C@@H](Cc1c[nH]c2ccccc12)C(=O)N[C@@H](CO)C(N)=O [Myxinidin 2, KIKWILKYWKWS-NH2] (H-KIKWILKYWKWS-NH2; N-terminus assumed) | 100% | 100% | 98% | 75% | 100% | 98% | 95% | 83% | 29% | 13% | 5% | 5% | 100% | 100% | 100% | 100% | 99% | 93% | 45% | 33% | Antimicrobial activity (MIC) according to salt concentration (L. monocytogenes [2]; [11]): 4; Antimicrobial activity (MIC) according to salt concentration (L. monocytogenes [2]; PBS): 8; Antimicrobial activity (MIC) according to salt concentration (L. monocytogenes [2]; SP (10 mM sodium phosphate)): 8; Minimum growth inhibitory concentration [3]: 32 µM; Minimum growth inhibitory concentration [4]: 8 µM; Minimum growth inhibitory concentration [5]: 2 µM; Minimum growth inhibitory concentration [6]: 8 µM; Minimum growth inhibitory concentration [7]: 1 µM; Minimum growth inhibitory concentration [8]: 16 µM; Minimum growth inhibitory concentration [9]: 2 µM; Minimum growth inhibitory concentration [10]: 0.25 µM; Biofilm forming ability (S. aureus; peptide 0.25 μM): 100%; Biofilm forming ability (S. aureus; peptide 0.5 μM): 97%; Biofilm forming ability (S. aureus; peptide 1 μM): 97%; Biofilm forming ability (S. aureus; peptide 2 μM): 97%; Biofilm forming ability (S. aureus; peptide 4 μM): 93%; Biofilm forming ability (S. aureus; peptide 8 μM): 89%; Biofilm forming ability (S. aureus; peptide 16 μM): 24%; Biofilm forming ability (S. aureus; peptide 32 μM): 15%
2 | CC[C@H](C)[C@H](NC(=O)CN)C(=O)N[C@@H](Cc1c[nH]cn1)C(=O)N[C@@H](Cc1c[nH]cn1)C(=O)N[C@H](C(=O)N[C@@H](CC(C)C)C(=O)N[C@@H](CCCCN)C(=O)N[C@@H](Cc1ccc(O)cc1)C(=O)NCC(=O)N[C@@H](CCCCN)C(=O)N1CCC[C@H]1C(=O)N[C@@H](CO)C(N)=O)[C@@H](C)CC [Myxinidin 1, GIHHILKYGKPS-NH2] (H-GIHHILKYGKPS-NH2; N-terminus assumed) | 100% | 96% | 96% | 88% | 100% | 100% | 94% | 93% | 92% | 92% | 89% | 88% | 100% | 100% | 100% | 100% | 99% | 98% | 97% | 93% | Antimicrobial activity (MIC) according to salt concentration (L. monocytogenes [2]; [11]): >32; Antimicrobial activity (MIC) according to salt concentration (L. monocytogenes [2]; PBS): >32; Antimicrobial activity (MIC) according to salt concentration (L. monocytogenes [2]; SP (10 mM sodium phosphate)): >32; Minimum growth inhibitory concentration [3]: >32 µM; Minimum growth inhibitory concentration [4]: >32 µM; Minimum growth inhibitory concentration [5]: >32 µM; Minimum growth inhibitory concentration [6]: >32 µM; Minimum growth inhibitory concentration [7]: >32 µM; Minimum growth inhibitory concentration [8]: >32 µM; Minimum growth inhibitory concentration [9]: >32 µM; Minimum growth inhibitory concentration [10]: >32 µM; Biofilm forming ability (S. aureus; peptide 0.25 μM): 98%; Biofilm forming ability (S. aureus; peptide 0.5 μM): 88%; Biofilm forming ability (S. aureus; peptide 1 μM): 87%; Biofilm forming ability (S. aureus; peptide 2 μM): 86%; Biofilm forming ability (S. aureus; peptide 4 μM): 83%; Biofilm forming ability (S. aureus; peptide 8 μM): 83%; Biofilm forming ability (S. aureus; peptide 16 μM): 79%; Biofilm forming ability (S. aureus; peptide 32 μM): 75%
